Data taken from patent US20240016814A1, “METHOD OF TREATING HYPERTENSION” (Cipla Limited, priority 2017, published 2024).
“And” between values parts separate entries of the source, which are not always exact repeats. Equal values may be shown once. Where a name gives a salt, the structure may show the parent alone. Read-outs that look alike come from different tables or passages of the source.

Legend:
[1] = cited from earlier work
[2] = tested on: rats with monocrotaline induced pulmonary arterial hypertension; assay: Monocrotaline rat model for pulmonary arterial hypertension (Example 1, dosing Day 1 to 28); assay type: in vivo, Male Sprague-Dawley rats
Protocol: The studies were conducted for hemodynamic evaluation of desipramine in anesthetized sprague dawley rats treated with monocrotaline (“MCT”) to induce pulmonary arterial hypertension. Sildenafil was used as an internal control to compare the effects of desipramine.
The effects of Desipramine were evaluated in rats with monocrotaline induced pulmonary arterial hypertension using sildenafil as standard care treatment. Male Sprague-Dawley rats were orally administered vehicle, Desipramine (20 mg/kg given once daily every day for 28 days starting on Day 1), or sildenafil (100 mg/kg, administered once daily every day for 28 days starting on Day 1) (n=12 in each group). Rats received a single injection of monocrotaline (50 mg/kg, s.c.) on Study Day 1. On the twenty-eighth day following monocrotaline dosing, the rats were anesthetized with ketamine/xylazine for terminal monitoring of pulmonary and systemic arterial pressures along with heart rate.
Test Item: Vehicle (0.5% Methylcellulose+0.2% Tween 80 in deionized water. Desipramine (20 mg/kg given once daily for 28 days; Sildenafil (100 mg/kg administered once daily)
(§1) Route of Administration: Oral
Study Design: The study was planned and conducted according to design depicted below in Table 1
Pulmonary arterial hypertension was induced by injecting Monocrotaline (3 mL/Kg MCT in 50% DMSO in water) subcutaneously at a dose of 50 mg/kg of body weight to all the randomized Male Sprague-Dawley rats of Groups II, III, IV and V (except negative control group). Negative control group (Group I. DMSO group) received a single dose of 3 mL/kg 50% DMSO in water for injection subcutaneously. The positive control group (Group III) received 5 ml of vehicle every morning. The rats of desipramine group (Group IV) were orally administered Desipramine (20 mg/kg given once daily for 28 days starting on Day 1) and rats of sildenafil group (Group V) were orally administered sildenafil (100 mg/kg given once daily for 28 days starting on Day 1) On the twenty-eighth day after monocrotaline dosing, the rats were anesthetized with ketamine/xylazine for terminal monitoring of pulmonary and systemic arterial pressures along with heart rate.

[3] = tested on: rats with monocrotaline induced pulmonary arterial hypertension; assay: Monocrotaline rat model for treatment of pulmonary arterial hypertension (Example 2, dosing Day 14 till Day 28); assay type: in vivo, Male Sprague-Dawley rats; conditions: for % Inhibition of Fulton index: Hypertrophy (RV/LV + S) / inhibition at 30 mg/kg: positive control = 0.00; for inhibition at 30 mg/kg: Rattus norvegicus, po
Protocol: The studies were conducted for hemodynamic evaluation of desipramnine in anesthetized Sprague Dawley rats treated with monocrotaline (“MCT”) to induce pulmonary arterial hypertension. Sildenafil was used as an internal control to compare the effects of desipramine. The effects of desipramine were evaluated in rats with monocrotaline induced pulmonary arterial hypertension using sildenafil as standard care treatment. Male Sprague-Dawley rats were orally administered vehicle, desipramine (30 mg/kg, given once daily every day starting on Day 14 till Day 28), or sildenafil (100 mg/kg, given once daily every day starting on Day 14 till Day 28) (n=12 in each group). Rats received a single injection of monocrotaline (50 mg/kg, s.c.) on Study Day 1. On the twenty-eighth day following monocrotaline dosing, the rats were anesthetized with ketamine/xylazine for terminal monitoring of pulmonary and systemic arterial pressures along with heart rate.
Test Item: Vehicle (0.5% Methylcellulose+0.2% Tween 80 in deionized water. Desipramine (30 mg/kg given once daily starting on Day 14 till Day 28; Sildenafil (100 mg/kg, administered once daily starting on Day 14 till Day 28)
as §1
Study Design: The study was planned and conducted according to design depicted below in Table 7
Pulmonary arterial hypertension was induced by injecting 50 mg/kg dose of monocrotaline (3 mL/Kg MCT in 50% DMSO in water) subcutaneously to all the randomized Male Sprague-Dawley rats of Groups VII, VII, IX and X (except negative control group). Negative control group (Group VI. DMSO group) received a single dose of 3 mL/kg 50% DMSO in water for injection subcutaneously. Male Sprague-Dawley rats in groups […], VII, VIII and IX and X were administered 50 mg/kg of body weight of monocrotaline in DMSO subcutaneously to induce PAH on day 1. The rats of vehicle positive control group (Group VIII) received 5 ml of vehicle every morning. The rats of desipramine group (Group IX) were orally administered desipramine (30 mg/kg given once daily starting on Day 14 till Day 28) and rats of sildenafil group (Group X) were orally administered dildenafil (100 mg/kg given once daily starting on Day 14 till Day 28). On the twenty-eighth day after monocrotaline dosing, the rats were anesthetized with ketamine/xylazine for terminal monitoring of pulmonary and systemic arterial pressures along with heart rate. It is understood that from day 1 till administration of test compounds i.e., until day 14, rates of all groups were suffering from PAH due to administration of MCT. Thus the study was conducted to evaluate the efficacy of desipramine treatment for PAH. Sildenafil was used as an internal control to compare the effects of desipramine.

[4] = group mean, Desipramine 20 mg/Kg p.o. QD Day 1-28, Day 28
[5] = individual animals, Desipramine 20 mg/Kg p.o. QD Day 1-28, Day 28
[6] = group mean, Desipramine 30 mg/Kg p.o. QD Day 14 till Day 28, Day 28
[7] = individual animals, Desipramine 30 mg/Kg p.o. QD Day 14 till Day 28, Day 28

For `CNCCCN1c2ccccc2CCc2ccccc21` [Desipramine hydrochloride], the “time at which peak plasma concentrations are attained” value ([1]; following oral administration) is listed as 4 to 6 h, the “absorption from the gastrointestinal tract” value ([1]; in vivo) is listed as “rapidly and almost completely absorbed” and the first-pass metabolism ([1]; in vivo) is listed as “extensive”.
With `CNCCCN1c2ccccc2CCc2ccccc21` [Desipramine] the “systolic and mean pulmonary arterial pressures compared to the vehicle group” value ([2]; after 28 days, desipramine 20 mg/kg/day once daily) was “differences”, the “activity in controlling or reducing PAH compared with Sildenafil activity” value ([2]; desipramine 20 mg/kg vs sildenafil 100 mg/kg, Day 1-28) was “comparable” and the “Fulton index: Hypertrophy (RV/LV + S), Mean” value (“Fulton index … Mean” below) [2, 4] was 0.321. For the same compound, the “RV/Body wt (Right Ventricle/Body Weight), Mean” value [2, 4] was 0.0007, the “Right Ventricle (RV), Mean” value [2, 4] was 0.200 g and the “Right Ventricular Pressure (RVP), Mean” value [2, 4] was 16.241 mmHg. For the same compound, the “Right Ventricular Systolic Pressure (RVSP), Mean” value ([2]; group mean, Desipramine 20 mg/Kg p.o. QD Day 1-28, MCT 50 mg/kg s.c., Day 28) was 33.154 mmHg, the “Fulton index: Hypertrophy (RV/LV + S)” value [2, 5] was 0.292 and 0.474 and 0.274 and 0.244 and 0.286 and 0.278 and 0.426 and 0.352 and 0.263 and the “RV/Body wt (Right Ventricle/Body Weight)” value [2, 5] was 0.0005 (4×) and 0.0012 and 0.0006 (2×) and 0.0008 (2×). For the same compound, the “Right Ventricle (RV)” value [2, 5] was 0.171 g and 0.272 g and 0.168 g and 0.163 g and 0.169 g (2×) and 0.289 g and 0.251 g and 0.150 g, the “Right Ventricular Pressure (RVP)” value [2, 5] was 22.694 mmHg and 19.903 mmHg and 14.460 mmHg and 12.513 mmHg and 13.047 mmHg and 12.287 mmHg and 13.930 mmHg and 16.428 mmHg and 20.906 mmHg and the “Right Ventricular Systolic Pressure (RVSP)” value ([2]; individual animals, Desipramine 20 mg/Kg p.o. QD Day 1-28, MCT 50 mg/kg s.c., Day 28) was 44.096 mmHg and 40.737 mmHg and 27.834 mmHg and 26.777 mmHg and 25.403 mmHg and 26.483 mmHg and 31.091 mmHg and 37.179 mmHg and 38.785 mmHg. For the same compound, the “% Inhibition of Fulton index: Hypertrophy (RV/LV + S)” value ([3]; Desipramine 30 mg/Kg p.o. QD Day 14 till Day 28) was 32.07%, the inhibition at 30 mg/kg ([3]; Desipramine 30 mg/Kg p.o. QD Day 14 till Day 28, read-out: % Inhibition of Right Ventricular Pressure (RVP)) was 53.9% and the inhibition at 30 mg/kg ([3]; Desipramine 30 mg/Kg p.o. QD Day 14 till Day 28, read-out: % Inhibition of Right Ventricular Systolic Pressure (RVSP)) was 51.6%. The “systolic and mean pulmonary arterial pressures compared to the vehicle group” value ([3]; after 28 days, desipramine 30 mg/kg/day once daily, Day 14 till Day 28) was “differences”, the “activity in treatment of PAH compared with Sildenafil activity” value ([3]; desipramine 30 mg/kg vs sildenafil 100 mg/kg, Day 14 till Day 28) was “comparable” and the “Fulton index … Mean” value [3, 6] was 0.376. The “Right Ventricle weight, Mean” value [3, 6] was 0.250 gms, the “Right Ventricular Pressure (RVP), Mean” value [3, 6] was 15.796 mmHg and the “Right Ventricular Systolic Pressure (RVSP), Mean” value [3, 6] was 33.248 mmHg. For the same compound, the “Right ventricle/Body weight, Mean” value [3, 6] was 0.0007, the “Fulton index: Hypertrophy (RV/LV + S)” value [3, 7] was 0.404 and 0.426 and 0.430 and 0.333 and 0.288 and the “Right Ventricle weight” value [3, 7] was 0.252 gms and 0.274 gms and 0.340 gms and 0.205 gms and 0.181 gms. For the same compound, the “Right Ventricular Pressure (RVP)” value [3, 7] was 14.133 mmHg and 19.618 mmHg and 19.346 mmHg and 15.432 mmHg and 10.448 mmHg, the “Right ventricle/Body weight” value [3, 7] was 0.0008 (2×) and 0.0010 and 0.0006 and 0.0005 and the “Right Ventricular Systolic Pressure (RVSP)” value ([3]; individual animals, Desipramine 30 mg/Kg p.o. QD Day 14 till Day 28, MCT 50 mg/kg s.c., Day 28) was 30.245 mmHg and 39.927 mmHg and 38.672 mmHg and 32.210 mmHg and 25.188 mmHg.
In the case of `CCCc1nn(C)c2c(=O)[nH]c(-c3cc(S(=O)(=O)N4CCN(C)CC4)ccc3OCC)nc12` [Sildenafil], the “RV/Body wt (Right Ventricle/Body Weight), Mean” value ([2]; group mean, Sildenafil 100 mg/kg p.o. QD Day 1-28, Day 28) is reported as 0.0006, the “RV/Body wt (Right Ventricle/Body Weight)” value ([2]; individual animals, Sildenafil 100 mg/kg p.o. QD Day 1-28, Day 28) is reported as 0.0009 and 0.0006 (4×) and 0.0007 (3×) and 0.0003 and the “% Inhibition of Fulton index: Hypertrophy (RV/LV + S)” value ([3]; Sildenafil 100 mg/Kg p.o. QD Day 14 till Day 28) is reported as 30.70%. For the same compound, the “Fulton index … Mean” value ([3]; group mean, Sildenafil 100 mg/Kg p.o. QD Day 14 till Day 28, Day 28) was 0.384 and the “Fulton index: Hypertrophy (RV/LV + S)” value ([3]; individual animals, Sildenafil 100 mg/Kg p.o. QD Day 14 till Day 28, Day 28) was 0.393 and 0.306 and 0.337 and 0.389 and 0.415 and 0.464.
